Data as given in patent US20220409633A1, “COMPOSITION COMPRISING BUDESONIDE FOR OPHTHALMIC USE” (NTC S.R.L., priority 2019, published 2022).

Columns and labels:
[1] = Cumulative distribution Q3% (HELOS Particle Size Analysis) of budesonide powder; format: physicochemical; settings: FIG. 4
From the text: FIGS. 3 and 4 respectively show a diagram of the Cumulative Distribution Q3% (HELOS Particle Size Analysis) with respect to the particle size in μm, and a table corresponding to said diagram of the Cumulative Distribution with standard deviation, according to a possible embodiment of the budesonide that can be used in this invention. […] In this range of there is half the total weight, almost as in the remaining […]; Said budesonide is obtained and supplied by the manufacturer already in this form according to an average size distribution shown in the diagram of FIG. 3, and in tabular form in FIG. 4, which show the cumulative distribution Q3% with respect to the particle size in μm.

[2] = cited from earlier work
[3] = Average size distribution of micronized budesonide powder by laser diffractometer; format: physicochemical; settings: FIG. 5
From the text: Preferably, said budesonide has an average size distribution shown in the diagram of FIG. 5, and in tabular form in Table A.1 below (in which the numerical values are expressed in μm).
In Table A.1, the parameters Dx(10), Dx(50) and Dx(90) respectively indicate that 10%, 50% and 90% by weight of the particles analysed have a dimensional distribution below the numerical values (expressed in μm) indicated in such Table.
For example, the average size distribution could be determined by means of a Spraytec laser diffractometer (Malvern Panalytics, UK), preferably using the instrumental operating parameters shown in Table A.2 below, where the parameters not specified in such table were maintained as per default specifications of the laser diffractometer.

Cumulative Distribution Q3% ([1]; x0/μm=2,50): 90,32%
Cumulative Distribution Q3% ([1]; x0/μm=3.75): 99,01%
Dx(10) ([3]; 10% by weight of particles below this size): 1.10 μm
Dx(50) ([3]; 50% by weight of particles below this size): 2.02 μm
Dx(90) ([3]; 90% by weight of particles below this size): 3.68 μm
SMILES: CCCC1O[C@@H]2C[C@H]3[C@@H]4CCC5=CC(=O)C=C[C@]5(C)[C@H]4[C@@H](O)C[C@]3(C)[C@]2(C(=O)CO)O1 (stereo partly drawn) [budesonide]
solubility in water [2]: not water-soluble
